Measured values reported in patent US20100048462A1, “TRUNCATED PTH PEPTIDES WITH A CYCLIC CONFORMATION” (Zealand Pharma A/S, priority 2006, published 2010).
Bridge positions count the residues as written; N and C are the ends. Square brackets hold non-standard residues; d marks the D form. Peptide text beside a SMILES is read from it. hArg = N=C(N)NCCCC[C@H](N)C(=O)O; Nle = CCCC[C@H](N)C(=O)O; Ac5c = NC1(C(=O)O)CCCC1; Dap = NC[C@H](N)C(=O)O; Aib = CC(C)(N)C(=O)O

Key:
Saos-2 PTH1R = biological target: T1, Saos-2 PTH1R (Homo sapiens, UniProt Q03431); experiment: cAMP-efficacy assay in Saos-2 cells; type: cell-based; conditions: for EC50: cAMP, 100 μM IBMX, 37° C. 15 min, suffix of label = salt tested; for Emax ± SEM: relative effect to the control (SEQ ID NO: 32)
T1 construct: endogenous in cells; host or cells: Saos-2
T1 sequence (Q03431 27-593): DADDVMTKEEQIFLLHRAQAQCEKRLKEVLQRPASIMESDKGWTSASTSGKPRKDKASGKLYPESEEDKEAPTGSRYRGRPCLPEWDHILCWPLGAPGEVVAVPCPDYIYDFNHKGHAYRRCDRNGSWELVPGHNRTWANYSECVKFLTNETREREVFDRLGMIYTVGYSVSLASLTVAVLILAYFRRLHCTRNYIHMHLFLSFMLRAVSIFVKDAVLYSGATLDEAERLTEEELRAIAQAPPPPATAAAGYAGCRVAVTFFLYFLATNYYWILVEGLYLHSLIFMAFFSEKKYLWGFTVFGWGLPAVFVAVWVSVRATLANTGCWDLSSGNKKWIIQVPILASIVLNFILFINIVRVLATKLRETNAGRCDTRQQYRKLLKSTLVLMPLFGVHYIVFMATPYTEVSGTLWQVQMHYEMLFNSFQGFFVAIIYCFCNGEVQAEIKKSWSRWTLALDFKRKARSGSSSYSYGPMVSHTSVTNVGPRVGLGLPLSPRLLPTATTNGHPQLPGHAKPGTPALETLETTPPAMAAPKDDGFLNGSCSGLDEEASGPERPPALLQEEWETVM
Procedure, shortened: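 Saos-2 cells, grown two days after seeding at 50,000 cells/well, were exposed to peptide for 15 min at 37 °C in Tyrode's buffer with 0.1% BSA and 100 μM IBMX. After stopping with cold HCl, cAMP was measured by radioimmunoassay FlashPlate. EC50, pEC50, Hill slope and Emax came from a four-parameter sigmoidal fit.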

CYP2D6 = CYP2D6 (Homo sapiens, UniProt P10635); experiment: CYP2D6 inhibition in pooled human liver microsomes; type: in vitro ADME; parameters: Pooled human liver microsomes (HLM, final concentration 0.05 mg protein/mL); tissue BD Biosciences 452161; host or cells: pooled human liver microsomes; conditions: 10 μM compound, dextrorphan formation rate
Sequence of CYP2D6 (P10635 whole entry): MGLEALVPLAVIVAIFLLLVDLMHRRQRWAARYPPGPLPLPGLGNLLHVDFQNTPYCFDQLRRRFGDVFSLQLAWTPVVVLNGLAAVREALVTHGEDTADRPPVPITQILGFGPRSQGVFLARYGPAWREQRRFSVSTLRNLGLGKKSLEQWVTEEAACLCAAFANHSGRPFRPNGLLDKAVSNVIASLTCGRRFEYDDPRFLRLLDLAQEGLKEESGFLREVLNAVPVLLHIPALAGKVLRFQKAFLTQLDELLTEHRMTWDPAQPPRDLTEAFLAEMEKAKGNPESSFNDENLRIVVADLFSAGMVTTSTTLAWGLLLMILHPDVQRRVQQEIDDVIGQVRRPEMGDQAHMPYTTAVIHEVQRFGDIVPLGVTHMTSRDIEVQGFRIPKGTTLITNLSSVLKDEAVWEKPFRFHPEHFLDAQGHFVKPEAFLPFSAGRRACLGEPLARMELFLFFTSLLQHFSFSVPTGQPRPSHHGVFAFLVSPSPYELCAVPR
Protocol: Stock solutions of the test compounds (1 mM) were prepared in 50% isopropanol or 20% DMSO. Pooled human liver microsomes (HLM, final concentration 0.05 mg protein/mL) were mixed with phosphate buffer (0.1 M potassium phosphate, pH 7.4), CYP2D6 substrate (dextrometrorphan, 5 μM final concentration) and test compound (10 μM), quinidine (0.5 μM) or vehicle (0.2% DMSO or 0.5% isopropanol). The mixture was preincubated for 5 min at 37° C. prior to initiation of the reaction addition of a NADPH regenerating mixture (Final concentration: 1.25 mM NADP^+, 3.3 mM Glucose-6-phosphate, 3.3 mM MgCL2 and 0.4 U/mL glucose-6-phosphat dehydrogenase). After 5 minutes the reaction was stopped by addition of 0.25 volume stop reagent (94% acetonitrile, 6% acetic acid). Each experiment was performed in duplicate or triplicate.
The quantification of CYP2D6 product (dextrorphan) was performed by LC/MS/MS. After centrifugation for 5 min at 10.000 g, 40 μL of the supernatant was injected onto a C8 RP-HPLC column (XterraMS, C8, […], 50×2.1 mm). Dextrorphan was eluted by a linear gradient from 0 to 90% acetonitrile in 0.1% formic acid over 4 min using a flow rate of 0.15 ml/min. The concentration of dextrorphan in the reaction mixture was estimated from the peak area of the MS/MS transition (m/z 258.1>199) using an external calibration curve (Table 8).
The CYP2D6 activity in HLM was calculated as the metabolite formation rate: […]
Where, v is the formation rate, [metabolite] is the detected concentration of dextrorphan (pmol/mL) at the time (t, min) and [protein] is the protein concentration (mg/mL) in the reaction mixture. The influence of the test compounds on the CYP2D6 activity was calculated as % of the activity measured when incubated with the vehicle. The effect of CYP2D6 inhibitor (quinidine) was included as inhibition control within each batch analysis. A reduction in CYP2D6 activity to less than 70% of the vehicle control was considered significant.

SMILES: CC[C@H](C)[C@H](NC(=O)[C@H](CCC(=O)O)NC(=O)C(C)(C)NC(=O)[C@@H](NC(=O)C1(N)CCCC1)C(C)C)C(=O)N[C@@H](CCC(N)=O)C(=O)N[C@@H](CC(C)C)C(=O)N[C@@H](CCSC)C(=O)N[C@@H](Cc1c[nH]cn1)C(=O)N[C@@H](CCC(N)=O)C(=O)N[C@@H](CCCCNC(=N)N)C(=O)N[C@@H](C)C(=O)N[C@H]1CSSC[C@@H](C(N)=O)NC(=O)[C@H](CC(N)=O)NC(=O)[C@H](CC(C)C)NC(=O)[C@H](Cc2c[nH]c3ccccc23)NC1=O [SEQ ID NO: 7, H-Ac5c-Val-Aib-Glu-Ile-Gln-Leu-Met-His-Gln-Har-Ala-Cys( )-Trp-Leu-Asn-Cys( )-NH2] (H-[Ac5c]V[Aib]EIQLMHQ[hArg]ACWLNC-NH2; disulfide 13-17)
- EC50 (Saos-2 PTH1R): 0.0501 µM
- Emax ± SEM (Saos-2 PTH1R): 1.2
- CYP2D6 activity (% of vehicle) (CYP2D6): 85 % of vehicle

SMILES: CC[C@H](C)[C@H](NC(=O)[C@H](CCC(=O)O)NC(=O)C(C)(C)NC(=O)[C@@H](NC(=O)C1(N)CCCC1)C(C)C)C(=O)N[C@@H](CCC(N)=O)C(=O)N[C@@H](CC(C)C)C(=O)N[C@@H](CCSC)C(=O)N[C@@H](Cc1c[nH]cn1)C(=O)N[C@@H](CCC(N)=O)C(=O)N[C@@H](CCCCNC(=N)N)C(=O)N[C@@H](C)C(=O)N[C@H]1CCC(=O)NCCCC[C@@H](C(N)=O)NC(=O)[C@H](CC(N)=O)NC(=O)[C@H](CC(C)C)NC(=O)[C@H](Cc2c[nH]c3ccccc23)NC1=O [SEQ ID NO: 8, H-Ac5c-Val-Aib-Glu-Ile-Gln-Leu-Met-His-Gln-Har-Ala-Glu( )-Trp-Leu-Asn-Lys( )-NH2] (H-[Ac5c]V[Aib]EIQLMHQ[hArg]AEWLNK-NH2; lactam 13-17)
- EC50 (Saos-2 PTH1R): 0.0115 µM
- Emax ± SEM (Saos-2 PTH1R): 1.07 ± 0.02
- CYP2D6 activity (% of vehicle) (CYP2D6): 99 % of vehicle

SMILES: CC[C@H](C)[C@H](NC(=O)[C@H](CCC(=O)O)NC(=O)C(C)(C)NC(=O)[C@@H](NC(=O)C1(N)CCCC1)C(C)C)C(=O)N[C@@H](CCC(N)=O)C(=O)N[C@@H](CC(C)C)C(=O)N[C@@H](CCSC)C(=O)N[C@@H](Cc1c[nH]cn1)C(=O)N[C@@H](CCC(N)=O)C(=O)N[C@@H](CCCCNC(=N)N)C(=O)N[C@@H](C)C(=O)N[C@H]1CCCCNC(=O)CC[C@@H](C(N)=O)NC(=O)[C@H](CC(N)=O)NC(=O)[C@H](CC(C)C)NC(=O)[C@H](Cc2c[nH]c3ccccc23)NC1=O [SEQ ID NO: 9, H-Ac5c-Val-Aib-Glu-Ile-Gln-Leu-Met-His-Gln-Har-Ala-Lys( )-Trp-Leu-Asn-Glu( )-NH2] (H-[Ac5c]V[Aib]EIQLMHQ[hArg]AKWLNE-NH2; lactam 13-17)
- EC50 (Saos-2 PTH1R): 0.0141 µM
- Emax ± SEM (Saos-2 PTH1R): 1.03 ± 0.03
- CYP2D6 activity (% of vehicle) (CYP2D6): 85 % of vehicle

SMILES: CC[C@H](C)[C@H](NC(=O)[C@H](CCC(=O)O)NC(=O)C(C)(C)NC(=O)[C@@H](NC(=O)C1(N)CCCC1)C(C)C)C(=O)N[C@@H](CCC(N)=O)C(=O)N[C@@H](CC(C)C)C(=O)N[C@@H](CC(C)C)C(=O)N[C@@H](Cc1c[nH]cn1)C(=O)N[C@@H](CCC(N)=O)C(=O)N[C@@H](CCCCNC(=N)N)C(=O)N[C@@H](C)C(=O)N[C@H]1CNC(=O)C[C@@H](C(N)=O)NC(=O)[C@H](CC(N)=O)NC(=O)[C@H](CC(C)C)NC(=O)[C@H](Cc2c[nH]c3ccccc23)NC1=O [SEQ ID NO: 17, H-Ac5c-Val-Aib-Glu-Ile-Gln-Leu-Leu-His-Gln-Har-Ala-Dpr( )-Trp-Leu-Asn-Asp( )-NH2] (H-[Ac5c]V[Aib]EIQLLHQ[hArg]A[Dap]WLND-NH2; lactam 13-17)
- EC50 (Saos-2 PTH1R): 0.776 µM
- Emax ± SEM (Saos-2 PTH1R): 1.25 ± 0.05
- CYP2D6 activity (% of vehicle) (CYP2D6): 101 % of vehicle

SMILES: CC[C@H](C)[C@H](NC(=O)[C@H](CCC(=O)O)NC(=O)C(C)(C)NC(=O)[C@@H](NC(=O)C1(N)CCCC1)C(C)C)C(=O)N[C@@H](CCC(=O)O)C(=O)N[C@@H](CC(C)C)C(=O)N[C@@H](CCSC)C(=O)N[C@@H](Cc1c[nH]cn1)C(=O)N[C@@H](CCC(N)=O)C(=O)N[C@@H](CCCCNC(=N)N)C(=O)N[C@@H](C)C(=O)N[C@H]1CCCCNC(=O)C[C@@H](C(N)=O)NC(=O)[C@H](CC(N)=O)NC(=O)[C@H](CC(C)C)NC(=O)[C@H](Cc2c[nH]c3ccccc23)NC1=O [SEQ ID NO: 18, H-Ac5c-Val-Aib-Glu-IIe-Glu-Leu-Met-His-Gln-Har-Ala-Lys( )-Trp-Leu-Asn-Asp( )-NH2] (H-[Ac5c]V[Aib]EIELMHQ[hArg]AKWLND-NH2; lactam 13-17)
- EC50 (Saos-2 PTH1R): 0.0513 µM
- Emax ± SEM (Saos-2 PTH1R): 1.24 ± 0.29
- CYP2D6 activity (% of vehicle) (CYP2D6): 89 % of vehicle

SMILES: CCCC[C@H](NC(=O)[C@H](CC(C)C)NC(=O)[C@H](CCC(N)=O)NC(=O)[C@@H](NC(=O)[C@H](CCC(=O)O)NC(=O)C(C)(C)NC(=O)[C@@H](NC(=O)C1(N)CCCC1)C(C)C)[C@@H](C)CC)C(=O)N[C@@H](Cc1c[nH]cn1)C(=O)N[C@@H](CCC(N)=O)C(=O)N[C@@H](CCCCNC(=N)N)C(=O)N[C@@H](C)C(=O)N[C@H]1CCCCNC(=O)C[C@@H](C(N)=O)NC(=O)[C@H](CC(N)=O)NC(=O)[C@H](CC(C)C)NC(=O)[C@H](Cc2c[nH]c3ccccc23)NC1=O [SEQ ID NO: 20, H-Ac5c-Val-Aib-Glu-Ile-Gln-Leu-Nle-His-Gln-Har-Ala-Lys( )-Trp-Leu-Asn-Asp( )-NH2] (H-[Ac5c]V[Aib]EIQL[Nle]HQ[hArg]AKWLND-NH2; lactam 13-17)
- EC50 (Saos-2 PTH1R): 0.00794 µM
- Emax ± SEM (Saos-2 PTH1R): 0.97 ± 0.04
- CYP2D6 activity (% of vehicle) (CYP2D6): 99 % of vehicle

SMILES: CC[C@H](C)[C@H](NC(=O)[C@H](CCC(=O)O)NC(=O)C(C)(C)NC(=O)[C@@H](NC(=O)C1(N)CCCC1)C(C)C)C(=O)N[C@@H](CCC(N)=O)C(=O)N[C@@H](CC(C)C)C(=O)N[C@H](C(=O)N[C@@H](Cc1c[nH]cn1)C(=O)N[C@@H](CCC(N)=O)C(=O)N[C@@H](CCCCNC(=N)N)C(=O)N[C@@H](C)C(=O)N[C@H]1CCCCNC(=O)C[C@@H](C(N)=O)NC(=O)[C@H](CC(N)=O)NC(=O)[C@H](CC(C)C)NC(=O)[C@H](Cc2c[nH]c3ccccc23)NC1=O)C(C)C [SEQ ID NO: 21, H-Ac5c-Val-Aib-Glu-Ile-Gln-Leu-Val-His-Gln-Har-Ala-Lys( )-Trp-Leu-Asn-Asp( )-NH2] (H-[Ac5c]V[Aib]EIQLVHQ[hArg]AKWLND-NH2; lactam 13-17)
- EC50 (Saos-2 PTH1R): 0.151 µM
- Emax ± SEM (Saos-2 PTH1R): 1.40 ± 0.27
- CYP2D6 activity (% of vehicle) (CYP2D6): 92 % of vehicle

SMILES: CC[C@H](C)[C@H](NC(=O)[C@H](CCC(=O)O)NC(=O)C(C)(C)NC(=O)[C@@H](NC(=O)C1(N)CCCC1)C(C)C)C(=O)N[C@@H](CCC(N)=O)C(=O)N[C@@H](CC(C)C)C(=O)N[C@@H](CCSC)C(=O)N[C@@H](Cc1c[nH]cn1)C(=O)N[C@@H](CCC(=O)O)C(=O)N[C@@H](CCCCNC(=N)N)C(=O)N[C@@H](C)C(=O)N[C@H]1CCCCNC(=O)C[C@@H](C(N)=O)NC(=O)[C@H](CC(N)=O)NC(=O)[C@H](CC(C)C)NC(=O)[C@H](Cc2c[nH]c3ccccc23)NC1=O [SEQ ID NO: 24, H-Ac5c-Val-Aib-Glu-Ile-Gln-Leu-Met-His-Glu-Har-Ala-Lys( )-Trp-Leu-Asn-Asp( )-NH2] (H-[Ac5c]V[Aib]EIQLMHE[hArg]AKWLND-NH2; lactam 13-17)
- EC50 (Saos-2 PTH1R): 0.126 µM
- Emax ± SEM (Saos-2 PTH1R): 1.4
- CYP2D6 activity (% of vehicle) (CYP2D6): 83 % of vehicle
